The results in this text go back to ChEMBL document CHEMBL1287720, “Inhibition of human neuraminidase 3 (NEU3) by C9-triazole derivatives of 2,3-didehydro-N-acetyl-neuraminic acid” (Bioorg Med Chem Lett, 2010).

The first assay concerns the target T1, Sialidase-3 (Homo sapiens, UniProt Q9UQ49).
T1 sequence (Q9UQ49 whole entry): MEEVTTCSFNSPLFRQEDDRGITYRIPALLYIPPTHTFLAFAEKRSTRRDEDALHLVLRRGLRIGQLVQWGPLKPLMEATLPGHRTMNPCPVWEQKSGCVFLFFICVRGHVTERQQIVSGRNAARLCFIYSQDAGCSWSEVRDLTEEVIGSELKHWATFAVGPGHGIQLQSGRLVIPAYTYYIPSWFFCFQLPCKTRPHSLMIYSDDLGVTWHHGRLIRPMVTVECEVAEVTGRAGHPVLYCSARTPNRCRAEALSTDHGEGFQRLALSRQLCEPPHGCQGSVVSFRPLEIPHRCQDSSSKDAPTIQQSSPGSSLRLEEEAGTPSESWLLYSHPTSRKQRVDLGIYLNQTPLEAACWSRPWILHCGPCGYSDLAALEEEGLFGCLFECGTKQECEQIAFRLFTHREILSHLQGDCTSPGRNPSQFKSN
Assay: not given; call rule not given here
One may read the IC50 as the midpoint of a concentration-inhibition curve. The compound `CC(=O)N[C@H]1[C@H]([C@H](O)[C@H](O)CN=[N+]=[N-])OC(C(=O)O)=C[C@@H]1O` registered an IC50 of 70 µM.

As for `CC(=O)N[C@H]1[C@H]([C@H](O)[C@H](O)Cn2cc(-c3ccccc3)nn2)OC(C(=O)O)=C[C@@H]1O`, half-maximal inhibition (IC50) was put at 20 µM.

`CCCCCCc1cn(C[C@@H](O)[C@@H](O)[C@@H]2OC(C(=O)O)=C[C@H](O)[C@H]2NC(C)=O)nn1` showed a half-inhibitory concentration (IC50) of 23 µM.

For the compound `CCOc1cn(C[C@@H](O)[C@@H](O)[C@@H]2OC(C(=O)O)=C[C@H](O)[C@H]2NC(C)=O)nn1`, the half-maximal inhibitory concentration (IC50) stood at 300 µM.

`CCOC(OCC)c1cn(C[C@@H](O)[C@@H](O)[C@@H]2OC(C(=O)O)=C[C@H](O)[C@H]2NC(C)=O)nn1` displayed a 50% inhibitory concentration (IC50) of 130 µM.

With `CC(=O)N[C@H]1[C@H]([C@H](O)[C@H](O)Cn2cc(COc3ccccc3)nn2)OC(C(=O)O)=C[C@@H]1O`, half-maximal inhibition (IC50) required 45 µM.

`CC(=O)N[C@H]1[C@H]([C@H](O)[C@H](O)Cn2cc(CO)nn2)OC(C(=O)O)=C[C@@H]1O` yielded an IC50 of 300 µM.

For `CC(=O)N[C@H]1[C@H]([C@H](O)[C@H](O)Cn2cc(CCO)nn2)OC(C(=O)O)=C[C@@H]1O`, 400 µM corresponded to half-maximal inhibition (IC50).

For `CC(=O)N[C@H]1[C@H]([C@H](O)[C@H](O)Cn2cc(CCCO)nn2)OC(C(=O)O)=C[C@@H]1O`, the IC50 stood at 500 µM.

The compound `CC(=O)N[C@H]1[C@H]([C@H](O)[C@H](O)Cn2cc(C(C)(C)O)nn2)OC(C(=O)O)=C[C@@H]1O` returned a half-maximal inhibitory concentration (IC50) of 300 µM.

Consider `[N-]=[N+]=NCC(=O)N[C@H]1[C@H]([C@H](O)[C@H](O)CO)OC(C(=O)O)=C[C@@H]1O`, for which the IC50 is 21 µM.

Turning to `O=C(Cn1cc(-c2ccccc2)nn1)N[C@H]1[C@H]([C@H](O)[C@H](O)CO)OC(C(=O)O)=C[C@@H]1O`, the IC50 is more than 500 µM.

`CCCCCCc1cn(CC(=O)N[C@H]2[C@H]([C@H](O)[C@H](O)CO)OC(C(=O)O)=C[C@@H]2O)nn1`: the half-maximal inhibitory concentration (IC50) is more than 500 µM.

Consider `CCOc1cn(CC(=O)N[C@H]2[C@H]([C@H](O)[C@H](O)CO)OC(C(=O)O)=C[C@@H]2O)nn1`, for which the IC50 was more than 500 µM.

Regarding `CCOC(OCC)c1cn(CC(=O)N[C@H]2[C@H]([C@H](O)[C@H](O)CO)OC(C(=O)O)=C[C@@H]2O)nn1`, the IC50 is more than 500 µM.

For the compound `O=C(Cn1cc(COc2ccccc2)nn1)N[C@H]1[C@H]([C@H](O)[C@H](O)CO)OC(C(=O)O)=C[C@@H]1O`, the half-maximal inhibitory concentration (IC50) was more than 500 µM.

Compound `O=C(Cn1cc(CO)nn1)N[C@H]1[C@H]([C@H](O)[C@H](O)CO)OC(C(=O)O)=C[C@@H]1O` yielded an IC50 of more than 500 µM.

In turn, `O=C(Cn1cc(CCO)nn1)N[C@H]1[C@H]([C@H](O)[C@H](O)CO)OC(C(=O)O)=C[C@@H]1O` displayed a half-inhibitory concentration (IC50) of more than 500 µM.

`O=C(Cn1cc(CCCO)nn1)N[C@H]1[C@H]([C@H](O)[C@H](O)CO)OC(C(=O)O)=C[C@@H]1O` showed an IC50 of more than 500 µM.

On to `CC(C)(O)c1cn(CC(=O)N[C@H]2[C@H]([C@H](O)[C@H](O)CO)OC(C(=O)O)=C[C@@H]2O)nn1`, for which the IC50 is more than 500 µM.

For the compound `CC(=O)N[C@H]1[C@H]([C@H](O)[C@H](O)CO)OC(C(=O)O)=C[C@@H]1O` [NEU5AC2EN], 48 µM corresponded to half-maximal inhibition (IC50).

A further assay deals with T1, Sialidase-3. Briefly: Inhibition of human neuraminidase 3 assessed as inhibition of 4-methylumbelliferyl-alpha-D-N-acetylneuraminic acid hydrolysis.
Regarding `CC(=O)N[C@H]1[C@H]([C@H](O)[C@H](O)CNC(=O)c2ccccc2)OC(C(=O)O)=C[C@@H]1O`, the IC50 was 320 µM.

Consider `CC(=O)NC[C@@H](O)[C@@H](O)[C@@H]1OC(C(=O)O)=C[C@H](O)[C@H]1NC(C)=O`, for which the IC50 is more than 1000 µM.

`CC(=O)N[C@H]1[C@H]([C@H](O)[C@H](O)CO)OC(C(=O)O)=C[C@@H]1O` [NEU5AC2EN]: the concentration for half-maximal inhibition (IC50) came out at 43 µM.

For a further assay, the target named is T1, Sialidase-3. Briefly: Inhibition of human neuraminidase 3.
Take `CC(=O)N[C@H]1[C@H]([C@H](O)[C@H](O)CO)O[C@@](O)(C(=O)O)C[C@@H]1O`: the IC50 entry is listed as “Not Active”.

A further assay addresses T1, Sialidase-3. In words: Inhibition of human neuraminidase 3 assessed as inhibition of GM3 hydrolysis.
For `CCOC(=O)C1=C[C@@H](OC(CC)CC)[C@H](NC(C)=O)[C@@H](N)C1` [OSELTAMIVIR], the concentration for half-maximal inhibition (IC50) was more than 10000 µM.
